Test results published in ChEMBL document CHEMBL5528082 (J Med Chem, 2024).
≈ marks a conversion by molar mass, not a printed value. Calls of active or inactive are those of the source. The rule behind the calls is not given here.

Columns and labels:
[1] = biological target: T1, Dihydrofolate reductase (Homo sapiens, UniProt P00374); assay: Inhibition of human DHFR
T1 sequence (P00374 whole entry): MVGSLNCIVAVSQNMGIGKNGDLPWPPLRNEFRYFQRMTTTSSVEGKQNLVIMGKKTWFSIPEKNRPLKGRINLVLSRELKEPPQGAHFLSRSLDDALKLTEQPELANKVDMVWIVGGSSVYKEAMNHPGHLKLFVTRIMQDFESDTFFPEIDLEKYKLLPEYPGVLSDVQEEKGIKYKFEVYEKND

[2] = test system: Staphylococcus aureus; assay: Antibacterial activity against TMP-resistant Staphylococcus aureus BHKS 721 incubated for 24 hrs by CLSI based broth microdilution assay; format: functional
[3] = test system: Staphylococcus aureus; assay: Bactericidal activity against Staphylococcus aureus ATCC 25923 assessed as bacterial growth suppression measured for 24 hrs by time kill assay; format: functional, organism-based
[4] = Acute toxicity in C57 mouse assessed as body weight loss at 400 to 800 mg/kg, po measured for 2 days; format: organism-based; conditions: in vivo, 48 h, dose 400-800 mg/kg, time 2 day
[5] = Acute toxicity in C57 mouse assessed as body weight loss at 400 to 800 mg/kg, po measured for 4 days; format: organism-based; conditions: in vivo, 96 h, dose 400-800 mg/kg, time 4 day
[6] = Acute toxicity in C57 mouse assessed as damage in heart at 800 mg/kg, po measured after 1 week by H and E staining based analysis; format: organism-based; conditions: in vivo, 168 h, time 1 weeks
[7] = Acute toxicity in C57 mouse assessed as damage in spleen at 800 mg/kg, po measured after 1 week by H and E staining based analysis; format: organism-based; conditions: in vivo, 168 h, time 1 weeks
[8] = Metabolic stability in mouse liver microsomes assessed as clearance rate at 3 uM measured for 120 mins by LC-MS/MS analysis; format: ADME, Microsome; conditions: 2 h
[9] = Oral bioavailability in Sprague-Dawley rat at 15 mg/kg measured for 24 hrs by LC/MS analysis; format: ADME, organism-based; conditions: in vivo
[10] = test system: Staphylococcus aureus; assay: Antibacterial activity against methicillin-resistant Staphylococcus aureus ATCC 33591 infected in C57 mouse model assessed as wound healing at 2 to 10 mg/kg administered once a day for 3 days consecutively and measured after 24 hrs post-last dose; format: functional, organism-based; conditions: dose 2-10 mg/kg, time 4.0 day

Which results are given for `CC(C)c1cc(OCC2CC2)c(I)cc1Oc1cnc(N)nc1N`?
IC50 [1]: 4.19 µM; MIC [2]: 4 µg/mL (≈ 9.09 µM); Activity [3]: Dose-Dependent Effect; Activity [4]: Toxic; Activity [5]: Non-Toxic; Activity [6]: Non-Toxic; Activity [7]: Non-Toxic; CLH [8]: 4.1 µL/min/mg; bioavailability [9]: 40.7%; Activity [10]: Active
